In patent US10105357B2, “Indication of antibiotic drugs for preparation of cancer inhibition pharmaceutical composition” (LAUNX BIOMEDICAL CO., LTD., priority 2014, dated 2018):
Structures can show the parent of a compound that is named as a salt. Where two headings read alike, the source gives them in different places.

Assays:
Type in all cases: cell-based, human
[1] = test system: MDA-MB-231 (Mammary Gland, Adenocarcinoma); experiment: Cell viability analysis, breast cancer MDA-MB-231; settings: Homo sapiens, MDA-MB-231, 72 h, read-out: The results of antibiotic drug inhibiting cancer cell lines (cell viability analysis), MDA-MB231
[2] = test system: C-33A (Cervical carcinoma); experiment: Cell viability analysis, cervical cancer C-33A; settings: Homo sapiens, C-33-A, 72 h, read-out: The results of antibiotic drug inhibiting cancer cell lines (cell viability analysis), C-33A
TOV-21G = experiment: Cell viability analysis, ovarian cancer TOV-21G; settings: Homo sapiens, TOV21G, 72 h, read-out: The results of antibiotic drug inhibiting cancer cell lines (cell viability analysis), TOV-21G
[3] = test system: BCC (basal cell carcinoma); experiment: Cell viability analysis, skin cancer BCC; settings: Homo sapiens, 72 h, read-out: The results of antibiotic drug inhibiting cancer cell lines (cell viability analysis), BCC
T24 = experiment: Cell viability analysis, bladder cancer T24; settings: Homo sapiens, T-24, 72 h, read-out: The results of antibiotic drug inhibiting cancer cell lines (cell viability analysis), T24
U-2OS = experiment: Cell viability analysis, osteosarcoma U-2OS; settings: Homo sapiens, U2OS, 72 h, read-out: The results of antibiotic drug inhibiting cancer cell lines (cell viability analysis), U2OS
[4] = test system: Hep3B (hepatocellular carcinoma); experiment: Cell viability analysis, hepatic cancer Hep3B; settings: Homo sapiens, Hep3B, 72 h, read-out: The results of antibiotic drug inhibiting cancer cell lines (cell viability analysis), Hep3B
[5] = test system: A375 (Amelanotic Melanoma); experiment: Cell viability analysis, skin cancer A375; settings: Homo sapiens
[6] = test system: MKN-45 (Gastric Adenocarcinoma); experiment: Cell viability analysis, gastric cancer MKN-45; settings: Homo sapiens
[7] = test system: MCF7 (Mammary Gland, Adenocarcinoma); experiment: Cell viability analysis, breast cancer MCF7; settings: Homo sapiens
cancer cell lines = experiment: Cell viability analysis (WST-1) on cancer cell lines; settings: drug 10 μM, 72 hours, WST-1; Table 3
BxPC-3 = experiment: Cell viability analysis, pancreatic cancer BxPC-3; settings: Homo sapiens, BXPC-3, 72 h, read-out: The results of antibiotic drug inhibiting cancer cell lines (cell viability analysis), BxPC-3
[8] = test system: 786-O (Renal adenocarcinoma); experiment: Cell viability analysis, renal cancer 786-O; settings: Homo sapiens, 786-0, 72 h, read-out: The results of antibiotic drug inhibiting cancer cell lines (cell viability analysis), 786-O
[9] = test system: TSGH-8301 (Urinary Bladder Carcinoma); experiment: Cell viability analysis, bladder cancer TSGH-8301; settings: Homo sapiens
[10] = test system: HI650 (Lung Adenocarcinoma); experiment: Cell viability analysis, lung cancer HI650; settings: Homo sapiens
[11] = test system: LoVo (Colorectal Adenocarcinoma); experiment: Cell viability analysis, colon cancer LoVo; settings: Homo sapiens, LoVo
NIH: OVCAR-3 = experiment: Cell viability analysis, ovarian cancer NIH: OVCAR-3; settings: Homo sapiens, OVCAR-3, 72 h, read-out: The results of antibiotic drug inhibiting cancer cell lines (cell viability analysis), NIH-OVCAR-3
[12] = test system: HepG2 (Hepatocellular Carcinoma); experiment: Cell viability analysis, hepatic cancer HepG2; settings: Homo sapiens
[13] = test system: SAS (Tongue squamous cell carcinoma); experiment: Cell viability analysis, tongue cancer SAS; settings: Homo sapiens, 72 h, read-out: The results of antibiotic drug inhibiting cancer cell lines (cell viability analysis), SAS
[14] = test system: PC3 (p53−) (Prostate Adenocarcinoma); experiment: Cell viability analysis, prostate cancer PC3; settings: Homo sapiens
[15] = test system: A549 (Lung Adenocarcinoma); experiment: Cell viability analysis, lung cancer A549; settings: Homo sapiens
[16] = test system: HL-60 (Acute Promyelocytic Leukemia); experiment: Cell viability analysis, leukemia HL-60; settings: Homo sapiens
AsPC-1 = experiment: Cell viability analysis, pancreatic cancer AsPC-1; settings: Homo sapiens, ASPC1, 72 h, read-out: The results of antibiotic drug inhibiting cancer cell lines (cell viability analysis), AsPC-1
[17] = test system: AGS (Gastric Adenocarcinoma); experiment: Cell viability analysis, gastric cancer AGS; settings: Homo sapiens
[18] = test system: HeLa (Cervix Adenocarcinoma); experiment: Cell viability analysis, cervical cancer HeLa; settings: Homo sapiens, HeLa

SMILES: Cc1cc(C(C)(C)C)cc(C)c1CC1=NCCN1 [Xylometazoline HCl]
- viability at 10 µM [1]: 96.3%
- viability at 10 µM [2]: 104%
- viability at 10 µM (TOV-21G): 92.3%
- viability at 10 µM [3]: 116%
- viability at 10 µM (T24): 92.5%
- viability at 10 µM (U-2OS): 60.2%
- viability at 10 µM [4]: 114%
- viability at 10 µM ([5]; A-375, 72 h, A375, repeated experiment, read-out: The results of antibiotic drug inhibiting cancer cell lines (cell viability analysis), A375): 102%
- viability at 10 µM ([5]; A-375, drug 10 μM, 72 hours, WST-1, OD450 nm, read-out: cell viability (survival rate), A375): 65.1%
- viability at 10 µM ([6]; 72 h, MKN-45, repeated experiment, read-out: The results of antibiotic drug inhibiting cancer cell lines (cell viability analysis), MKN-45): 121%
- viability at 10 µM ([6]; MKN-45, drug 10 μM, 72 hours, WST-1, OD450 nm, read-out: cell viability (survival rate), MKN-45): 65.8%
- viability at 10 µM ([7]; MCF7, 72 h, MCF-7, repeated experiment, read-out: The results of antibiotic drug inhibiting cancer cell lines (cell viability analysis), MCF-7): 90.1%
- viability at 10 µM ([7]; MCF7, drug 10 μM, 72 hours, WST-1, OD450 nm, read-out: cell viability (survival rate), MCF7): 94.4%
- inhibition effect on different cancer cell lines (cancer cell lines): significant inhibition effect
- viability at 10 µM (BxPC-3): 72.9%
- viability at 10 µM [8]: 100%
- viability at 10 µM ([9]; 72 h, TSGH-8301, repeated experiment, read-out: The results of antibiotic drug inhibiting cancer cell lines (cell viability analysis), TSGH-8301): 122%
- viability at 10 µM ([9]; drug 10 μM, 72 hours, WST-1, OD450 nm, read-out: cell viability (survival rate), TSGH): 42.6%
- viability at 10 µM ([10]; NCI-H1650, 72 h, H1650, repeated experiment, read-out: The results of antibiotic drug inhibiting cancer cell lines (cell viability analysis), H1650): 95.3%
- viability at 10 µM ([10]; NCI-H1650, drug 10 μM, 72 hours, WST-1, OD450 nm, read-out: cell viability (survival rate), H1650): 33.4%
- viability at 10 µM ([11]; 72 h, repeated experiment, read-out: The results of antibiotic drug inhibiting cancer cell lines (cell viability analysis), LoVo): 88.7%
- viability at 10 µM ([11]; drug 10 μM, 72 hours, WST-1, OD450 nm, read-out: cell viability (survival rate), LoVo): 47.1%
- viability at 10 µM (NIH: OVCAR-3): 102%
- viability at 10 µM ([12]; 72 h, HepG2, repeated experiment, read-out: The results of antibiotic drug inhibiting cancer cell lines (cell viability analysis), HepG2): 106%
- viability at 10 µM ([12]; HepG2, drug 10 μM, 72 hours, WST-1, OD450 nm, read-out: cell viability (survival rate), HepG2): 83%
- viability at 10 µM [13]: 76.4%
- viability at 10 µM ([14]; 72 h, PC-3, repeated experiment, read-out: The results of antibiotic drug inhibiting cancer cell lines (cell viability analysis), PC-3): 116%
- viability at 10 µM ([14]; drug 10 μM, 72 hours, WST-1, OD450 nm, read-out: cell viability (survival rate), PC3): 54.8%
- viability at 10 µM ([15]; 72 h, A549, repeated experiment, read-out: The results of antibiotic drug inhibiting cancer cell lines (cell viability analysis), A549): 83%
- viability at 10 µM ([15]; A549, drug 10 μM, 72 hours, WST-1, OD450 nm, read-out: cell viability (survival rate), A549): 74.7%
- viability at 10 µM ([16]; HL-60, drug 10 μM, 72 hours, WST-1, OD450 nm, read-out: cell viability (survival rate), HL-60): 84.9%
- viability at 10 µM (AsPC-1): 82.8%
- viability at 10 µM ([17]; 72 h, AGS, repeated experiment, read-out: The results of antibiotic drug inhibiting cancer cell lines (cell viability analysis), AGS): 125%
- viability at 10 µM ([17]; drug 10 μM, 72 hours, WST-1, OD450 nm, read-out: cell viability (survival rate), AGS): 52.2%
- viability at 10 µM ([18]; 72 h, repeated experiment, read-out: The results of antibiotic drug inhibiting cancer cell lines (cell viability analysis), HeLa): 117%
- viability at 10 µM ([18]; drug 10 μM, 72 hours, WST-1, OD450 nm, read-out: cell viability (survival rate), HeLa): 107%

SMILES: CO[C@H]1/C=C/O[C@@]2(C)Oc3c(C)c(O)c4c(O)c(c(/C=N/N5CCN(C6CCCC6)CC5)c(O)c4c3C2=O)NC(=O)/C(C)=C\C=C\[C@H](C)[C@H](O)[C@@H](C)[C@@H](O)[C@@H](C)[C@H](OC(C)=O)[C@@H]1C [Rifapentine (Priftin), Rifapentine]
- viability at 10 µM [1]: 93.3%
- viability at 10 µM [2]: 91.7%
- viability at 10 µM (TOV-21G): 79.7%
- viability at 10 µM [3]: 85.7%
- viability at 10 µM (T24): 86.3%
- viability at 10 µM (U-2OS): 87.2%
- viability at 10 µM [4]: 110%
- viability at 10 µM ([5]; A-375, 72 h, read-out: The results of antibiotic drug inhibiting cancer cell lines (cell viability analysis), A375, A375, repeated experiment): 98.2%
- viability at 10 µM ([5]; A-375, 72 h, read-out: cell viability (survival rate), A375, drug 10 μM, 72 hours, WST-1, OD450 nm): 77.7%
- viability at 10 µM ([6]; MKN-45, 72 h, read-out: The results of antibiotic drug inhibiting cancer cell lines (cell viability analysis), MKN-45, MKN-45, repeated experiment): 98.6%
- viability at 10 µM ([6]; MKN-45, 72 h, read-out: cell viability (survival rate), MKN-45, drug 10 μM, 72 hours, WST-1, OD450 nm): 58.6%
- viability at 10 µM ([7]; MCF7, 72 h, read-out: The results of antibiotic drug inhibiting cancer cell lines (cell viability analysis), MCF-7, MCF-7, repeated experiment): 84.1%
- viability at 10 µM ([7]; MCF7, 72 h, read-out: cell viability (survival rate), MCF7, drug 10 μM, 72 hours, WST-1, OD450 nm): 46.2%
- inhibition effect on different cancer cell lines (cancer cell lines): significant inhibition effect
- viability at 10 µM (BxPC-3): 74%
- viability at 10 µM [8]: 85.9%
- viability at 10 µM ([9]; 72 h, read-out: The results of antibiotic drug inhibiting cancer cell lines (cell viability analysis), TSGH-8301, TSGH-8301, repeated experiment): 94.7%
- viability at 10 µM ([9]; 72 h, read-out: cell viability (survival rate), TSGH, drug 10 μM, 72 hours, WST-1, OD450 nm): 99.2%
- viability at 10 µM ([10]; NCI-H1650, 72 h, read-out: The results of antibiotic drug inhibiting cancer cell lines (cell viability analysis), H1650, H1650, repeated experiment): 69%
- viability at 10 µM ([11]; 72 h, read-out: The results of antibiotic drug inhibiting cancer cell lines (cell viability analysis), LoVo, repeated experiment): 93.5%
- viability at 10 µM ([11]; 72 h, read-out: cell viability (survival rate), LoVo, drug 10 μM, 72 hours, WST-1, OD450 nm): 92.3%
- viability at 10 µM (NIH: OVCAR-3): 104%
- viability at 10 µM ([12]; HepG2, 72 h, read-out: The results of antibiotic drug inhibiting cancer cell lines (cell viability analysis), HepG2, HepG2, repeated experiment): 112%
- viability at 10 µM ([12]; HepG2, 72 h, read-out: cell viability (survival rate), HepG2, drug 10 μM, 72 hours, WST-1, OD450 nm): 102%
- viability at 10 µM [13]: 85.4%
- viability at 10 µM ([14]; 72 h, read-out: The results of antibiotic drug inhibiting cancer cell lines (cell viability analysis), PC-3, PC-3, repeated experiment): 98.4%
- viability at 10 µM ([14]; 72 h, read-out: cell viability (survival rate), PC3, drug 10 μM, 72 hours, WST-1, OD450 nm): 99.1%
- viability at 10 µM ([15]; A549, 72 h, read-out: The results of antibiotic drug inhibiting cancer cell lines (cell viability analysis), A549, A549, repeated experiment): 87.4%
- viability at 10 µM ([15]; A549, 72 h, read-out: cell viability (survival rate), A549, drug 10 μM, 72 hours, WST-1, OD450 nm): 47.4%
- viability at 10 µM ([16]; HL-60, 72 h, read-out: cell viability (survival rate), HL-60, drug 10 μM, 72 hours, WST-1, OD450 nm): 99.1%
- viability at 10 µM (AsPC-1): 78.2%
- viability at 10 µM ([17]; 72 h, read-out: The results of antibiotic drug inhibiting cancer cell lines (cell viability analysis), AGS, repeated experiment): 76.4%
- viability at 10 µM ([17]; 72 h, read-out: cell viability (survival rate), AGS, drug 10 μM, 72 hours, WST-1, OD450 nm): 63.7%
- viability at 10 µM ([18]; 72 h, read-out: The results of antibiotic drug inhibiting cancer cell lines (cell viability analysis), HeLa, repeated experiment): 104%
- viability at 10 µM ([18]; 72 h, read-out: cell viability (survival rate), HeLa, drug 10 μM, 72 hours, WST-1, OD450 nm): 56.5%
